Results on 2 molecules are retold here after patent US20110189297A1, “STABLE SOLID ORAL DOSAGE CO-FORMULATIONS” (Sequicia Pharmaceuticals, priority 2008, published 2011).

The nature of series [1]: Pharmacokinetic study in beagle dogs, oral dry powder in capsules. In kind it is in vivo. Here is the method: A pharmacokinetic study was performed in beagle dogs to evaluate the performance of the oral dosage formulation prepared in Example 1 above. […] Both plasma levels and duration of exposure was increased.
The plasma exposure of the compound of Formula II from Compound II:EL100 (1:1) SDD powder alone was compared to co-administration with Atazanavir powder (FIG. 3). The ratio of the AUCs from mean plasma concentrations was 2.5, but the differences among individual animal was not statistically significant. The apparent increase in mean Compound II exposure came mostly later in the time course, after 8 hours.

Series [2] in a line: Inherent anti-retroviral activity.
Series [3] in a line: Dissolution study of hand-filled capsules in simulated gastric fluid, HPLC. The note with it: capsule in 500 mL simulated gastric fluid. The format is physicochemical. Here is the method: Commercially available 200 mg Reyataz hard gelatin capsules (lot number 6E3004B) were emptied by hand to create a stockpile of Atazanavir (ATV) commercial powder. This commercially available 200 mg Reyataz capsule contains 200 mg ATV as Atazanavir sulphate plus 178 mg of excipients (crospovidone, lactose monohydrate and magnesium stearate) for a total weigh to of 378 mg. 189 mg of the stockpiled commercial powder (equivalent to 100 mg Atazanavir) was blended by tumbling in a glass vial with 100 mg of the spray-dried amorphous dispersion (SDD) of Compound II/EUDRAGIT L-100 (EL-100) where the Compound II:EL100 ratio was 1:1 (produced by Hovione FarmaCientia) and filled by hand into “0” hard gelatin capsules. Therefore, each hand-filled “0” hard gelatin capsule contained 100 mg ATV, […] of Compound II:EL100 (1:1) SDD and 89 mg of excipients. These capsules were dropped into 500 mL of simulated gastric fluid and the amounts of Compound II and ATV in the resulting suspension was determined by HPLC (see Table 1 and FIG. 1).

For series [4], the system named is CYP3A. The note with it: human liver microsomes, in vitro; cited from earlier work. (In general: Liver microsomes are vesicles of endoplasmic reticulum, rich in cytochrome P450 enzymes.)

Molecules are shown by their SMILES.

For the molecule `CO[C@H](CN(CC(C)C)S(=O)(=O)c1ccc2occc2c1)[C@H](Cc1ccccc1)NC(=O)OC(C)(C)C` [Compound II], the “ratio of the AUCs from mean plasma concentrations of Compound II” value in series [1] (10 mg/kg Compound II from Compound II:EL100 (1:1) SDD with 20 mg/kg Atazanavir vs alone) came to 2.5. The “Cmax of Compound II, change on co-administration” value in series [1] (Compound II:EL100 (1:1) SDD with Atazanavir vs alone) is reported as “slightly increased”. Besides, in series [2], the inherent anti-retroviral activity result is listed as “no inherent anti-retroviral activity”. The “% of maximal Compound II Conc.” value in series [3] (0 min) is on record as 0%; in series [3] (5 min), 27.6%; in series [3] (10 min) it was 61.9%; in series [3] (15 min) it was 54.5%; in series [3] (20 min), 88.2%; in series [3] (25 min), 89.8%. Besides, the “% of maximal Compound II Conc.” value in series [3] (30 min) is 100.0%.
Take `COC(=O)N[C@H](C(=O)N[C@@H](Cc1ccccc1)[C@@H](O)CN(Cc1ccc(-c2ccccn2)cc1)NC(=O)[C@@H](NC(=O)OC)C(C)(C)C)C(C)(C)C.O=S(=O)(O)O` [Atazanavir, Atazanavir sulfate, reference compound]: the metabolising enzyme result in series [4] is reported as “metabolized by CYP3A”. Moreover, the “% of maximal ATV Conc.” value in series [3] (0 min) was 0%; in series [3] (5 min) it was 88.9%; in series [3] (10 min) it was 93.4%; in series [3] (15 min) it was 100.0%; in series [3] (20 min) it was 99.4%; in series [3] (25 min), 99.1%. For the same molecule, the “% of maximal ATV Conc.” value in series [3] (30 min) is given as 97.9%.
